According to the supplement of paper PMC10627819:

Key:
[1] = test system: B. subtilis 168; assay: fitness (endpoint OD595 vs no drug) (fraction); higher = more growth
In short: (§1)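 Fitness is computed from the optical density at which cultures reach stationary phase, divided by the robust mean of no-drug control wells. Any value above 1 is set to 1. Cultures started at OD595 0.01 in 384-well plates with TSB, LB Lennox or CY at 37 °C, and OD595 was read every 30 min for 14 h against a first-reading background.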

[2] = test system: S. aureus Newman; assay: as above; conditions: one replicate
In short: as §1

[3] = test system: B. subtilis 168; assay: Bliss interaction score (quartile over a dose matrix) (fitness difference); higher = more antagonism (negative = synergy)
In short: (§2)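 Fitness here means normalised growth, inferred for single drugs from the combination data. Growth was OD595 at entry into stationary phase, divided by the plate's robust no-drug mean and capped at 1. The Bliss score is observed minus expected fitness, with the expectation being the product, and its quartiles span technical, biological and donor/recipient replicates.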

[4] = test system: S. aureus DSM 20231; assay: as above
In short: as §2

[5] = test system: S. aureus Newman; assay: as above
In short: as §2

[6] = test system: S. pneumoniae D39V; assay: as above
In short: as §2
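Wherever Bliss interaction score (quartile over a dose matrix) is given: first quartile when negative (synergy) and third quartile when positive (antagonism).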
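Wherever fitness (endpoint OD595 vs no drug) is given: OD595 on entry to stationary phase over no-drug wells; at most 1.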

CO/N=C(\C(=O)N[C@@H]1C(=O)N2C(C(=O)O)=C(COC(N)=O)CS[C@H]12)c1ccco1 [Cefuroxime] + CN(N=O)C(=O)N[C@@H](C=O)[C@@H](O)[C@H](O)[C@H](O)CO [Streptozotocin]
fitness
Conditions | first compound 0.04875 µg/mL | first compound 0.0975 µg/mL | first compound 0.195 µg/mL
[1], partner 0.15 µg/mL | 0.717 | 0.688 | 0.539
[1], partner 0.3 µg/mL | – | – | 0.54
[1], partner 0.6 µg/mL | – | – | 0.496
[2], partner 0.15 µg/mL | 0.958 | 0.995 | 0.96
[2], partner 0.3 µg/mL | 0.731 | 0.723 | 0.736
[2], partner 0.6 µg/mL | 0.534 | 0.51 | 0.464

Conditions | Bliss interaction score
[3] | -0.0649
[4] | 0.0897
[5] | -0.194
[6] | -0.0368

CO/N=C(\C(=O)N[C@@H]1C(=O)N2C(C(=O)O)=C(COC(N)=O)CS[C@H]12)c1ccco1 [Cefuroxime] + C[C@@H]1O[C@@H]1P(=O)(O)O [Fosfomycin]
fitness
Conditions | first compound 0.04875 µg/mL | first compound 0.0975 µg/mL | first compound 0.195 µg/mL
[1], partner 1.562 µg/mL | 0.464 | 0.419 | 0.39
[1], partner 3.124 µg/mL | 0.363 | 0.337 | 0.28
[1], partner 6.248 µg/mL | 0.293 | 0.245 | 0.194
[2], partner 0.781 µg/mL | 0.803 | 0.7 | 0.632
[2], partner 1.562 µg/mL | 0.56 | 0.508 | 0.438
[2], partner 3.124 µg/mL | 0.12 | 0.0863 | 0.0573

fitness, [1], one replicate
Conditions | first compound 0.39 µg/mL | first compound 0.78 µg/mL | first compound 1.562 µg/mL | first compound 3.125 µg/mL | first compound 6.25 µg/mL
partner 1.562 µg/mL | 0.344 | 0.301 | 0.179 | 0.136 | 0.113
partner 3.124 µg/mL | 0.331 | 0.235 | 0.17 | 0.122 | 0.133
partner 6.248 µg/mL | 0.189 | 0.131 | 0.0925 | 0.0543 | 0.0496

Conditions | Bliss interaction score
[3] | -0.0716
[4] | 0.0278
[5] | 0.0983
[6] | 0.0411

CO/N=C(\C(=O)N[C@@H]1C(=O)N2C(C(=O)O)=C(COC(N)=O)CS[C@H]12)c1ccco1 [Cefuroxime] + COc1c(N2C[C@@H]3CCCN[C@@H]3C2)c(F)cc2c(=O)c(C(=O)O)cn(C3CC3)c12 [Moxifloxacin]
fitness, [1], one replicate
Conditions | first compound 0.04875 µg/mL | first compound 0.0975 µg/mL | first compound 0.195 µg/mL | first compound 1.562 µg/mL | first compound 3.125 µg/mL | first compound 6.25 µg/mL
partner 0.0312 µg/mL | 0.0482 | 0.0451 | – | – | – | –
partner 0.0625 µg/mL | 0.0309 | 0.0348 | – | – | – | –
partner 0.125 µg/mL | 0.0185 | 0.0123 | – | – | – | –
partner 2 µg/mL | 0.0399 | 0.0244 | 0.0298 | 0.0359 | 0.0258 | 0.0141
partner 4 µg/mL | 0.0357 | 0.0206 | 0.0189 | 0.0269 | 0.0126 | 0.0118
partner 8 µg/mL | 0.0177 | 0.0063 | 0.0088 | 0.02 | 0.0184 | 0.011

fitness
Conditions | first compound 0.04875 µg/mL | first compound 0.0975 µg/mL | first compound 0.195 µg/mL | first compound 0.39 µg/mL | first compound 0.78 µg/mL
[1], partner 0.0312 µg/mL | – | – | 0.0354 | 0.0276 | 0.0247
[1], partner 0.0625 µg/mL | – | – | 0.0331 | 0.0172 | 0.0291
[1], partner 0.125 µg/mL | – | – | 0.0376 | 0.0259 | 0.0192
[2], partner 0.0075 µg/mL | 0.631 | 0.593 | 0.595 | – | –
[2], partner 0.015 µg/mL | 0.439 | 0.4 | 0.445 | – | –
[2], partner 0.03 µg/mL | 0.034 | 0.0177 | 0.0236 | – | –

Conditions | Bliss interaction score
[3] | 0.0178
[4] | -0.0502
[5] | -0.14
[6] | 0.0473

CO/N=C(\C(=O)N[C@@H]1C(=O)N2C(C(=O)O)=C(COC(N)=O)CS[C@H]12)c1ccco1 [Cefuroxime] + CN(C)c1cc(NC(=O)CNC(C)(C)C)c(O)c2c1C[C@H]1C[C@H]3[C@H](N(C)C)C(O)=C(C(N)=O)C(=O)[C@@]3(O)C(O)=C1C2=O [Tigecycline]
fitness
Conditions | partner 0.039 µg/mL | partner 0.078 µg/mL | partner 0.156 µg/mL
[1], first compound 0.0975 µg/mL | 0.652 | 0.677 | 0.669
[1], first compound 0.195 µg/mL | 0.553 | 0.53 | 0.537
[2], first compound 0.04875 µg/mL | 0.933 | 0.907 | 0.95
[2], first compound 0.0975 µg/mL | 0.927 | 0.959 | 0.895
[2], first compound 0.195 µg/mL | 0.879 | 0.843 | 0.863

fitness, [1], one replicate
Conditions | first compound 0.195 µg/mL | first compound 0.39 µg/mL | first compound 0.78 µg/mL | first compound 1.562 µg/mL | first compound 3.125 µg/mL | first compound 6.25 µg/mL
partner 0.039 µg/mL | – | – | – | 0.349 | 0.258 | 0.227
partner 0.078 µg/mL | – | – | – | 0.284 | 0.219 | 0.17
partner 0.125 µg/mL | 0.405 | 0.34 | 0.292 | – | – | –
partner 0.156 µg/mL | – | – | – | 0.283 | 0.235 | 0.153
partner 0.25 µg/mL | 0.368 | 0.287 | 0.211 | – | – | –
partner 0.5 µg/mL | 0.398 | 0.299 | 0.259 | – | – | –

Conditions | Bliss interaction score
[3] | 0.0459
[4] | 0.0902
[5] | -0.0442
[6] | 0.0499

CO/N=C(\C(=O)N[C@@H]1C(=O)N2C(C(=O)O)=C(COC(N)=O)CS[C@H]12)c1ccco1 [Cefuroxime] + CC(C1CCC(C(O1)OC2C(CC(C(C2O)OC3C(C(C(CO3)(C)O)NC)O)N)N)N)NC [Gentamicin]
fitness, main component drawn
Conditions | first compound 0.04875 µg/mL | first compound 0.0975 µg/mL | first compound 0.195 µg/mL
[1], partner 0.0625 µg/mL | 0.708 | 0.675 | 0.587
[1], partner 0.125 µg/mL | – | 0.379 | 0.0507
[1], partner 0.25 µg/mL | 0.0653 | 0.0449 | 0.0518
[2], partner 1 µg/mL | 0.937 | 0.923 | 0.942
[2], partner 2 µg/mL | 0.867 | 0.723 | 0.628
[2], partner 4 µg/mL | 0.0568 | 0.0486 | 0.0654

fitness, [1], one replicate, main component drawn
Conditions | first compound 0.39 µg/mL | first compound 0.78 µg/mL | first compound 1.562 µg/mL | first compound 3.125 µg/mL | first compound 6.25 µg/mL
partner 0.0625 µg/mL | 0.6 | 0.549 | 0.249 | 0.0632 | 0.0658
partner 0.125 µg/mL | 0.202 | 0.142 | 0.0288 | 0.0271 | 0.0297
partner 0.25 µg/mL | 0.152 | 0.0935 | 0.0323 | 0.029 | 0.0215

main component drawn
Conditions | Bliss interaction score
[3] | 0.0914
[4] | -0.313
[5] | -0.165
[6] | -0.0232
